Laboratory results from US20080234262A1 (Wyeth, priority 2007, published 2008).

Tests used:
breast line MDA468 = assay: In vitro cell culture growth assay (MTS), MDA468; type: cell-based, human; conditions: Homo sapiens, 72 h, MDA468 cells, three days after drug treatment
How it was run: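 Cells were plated and, one day later, exposed to inhibitors for three days; viable cell density was then measured by metabolic conversion of MTS dye, read as absorbance at 490 nm. Growth is expressed as percent of vehicle-treated control cells on the same plate.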

PI3K = PI3K (Homo sapiens, UniProt P42336); assay: Fluorescence polarization assay for PI3K; type: biochemical; conditions: PI3Kα; read-out: PI3Kα IC50;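 note: PI3K kinase reaction on PIP2 with ATP, 30-60 min, product sensed by GST-GRP with red probe in fluorescence polarization (mP), controls without enzyme and at zero time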
prostate line LNCap = assay: In vitro cell culture growth assay (MTS), LNCap; type: cell-based, human; conditions: Homo sapiens, LNCaP, 72 h, LNCap cells, three days after drug treatment

Sequence of PI3K (P42336 whole entry): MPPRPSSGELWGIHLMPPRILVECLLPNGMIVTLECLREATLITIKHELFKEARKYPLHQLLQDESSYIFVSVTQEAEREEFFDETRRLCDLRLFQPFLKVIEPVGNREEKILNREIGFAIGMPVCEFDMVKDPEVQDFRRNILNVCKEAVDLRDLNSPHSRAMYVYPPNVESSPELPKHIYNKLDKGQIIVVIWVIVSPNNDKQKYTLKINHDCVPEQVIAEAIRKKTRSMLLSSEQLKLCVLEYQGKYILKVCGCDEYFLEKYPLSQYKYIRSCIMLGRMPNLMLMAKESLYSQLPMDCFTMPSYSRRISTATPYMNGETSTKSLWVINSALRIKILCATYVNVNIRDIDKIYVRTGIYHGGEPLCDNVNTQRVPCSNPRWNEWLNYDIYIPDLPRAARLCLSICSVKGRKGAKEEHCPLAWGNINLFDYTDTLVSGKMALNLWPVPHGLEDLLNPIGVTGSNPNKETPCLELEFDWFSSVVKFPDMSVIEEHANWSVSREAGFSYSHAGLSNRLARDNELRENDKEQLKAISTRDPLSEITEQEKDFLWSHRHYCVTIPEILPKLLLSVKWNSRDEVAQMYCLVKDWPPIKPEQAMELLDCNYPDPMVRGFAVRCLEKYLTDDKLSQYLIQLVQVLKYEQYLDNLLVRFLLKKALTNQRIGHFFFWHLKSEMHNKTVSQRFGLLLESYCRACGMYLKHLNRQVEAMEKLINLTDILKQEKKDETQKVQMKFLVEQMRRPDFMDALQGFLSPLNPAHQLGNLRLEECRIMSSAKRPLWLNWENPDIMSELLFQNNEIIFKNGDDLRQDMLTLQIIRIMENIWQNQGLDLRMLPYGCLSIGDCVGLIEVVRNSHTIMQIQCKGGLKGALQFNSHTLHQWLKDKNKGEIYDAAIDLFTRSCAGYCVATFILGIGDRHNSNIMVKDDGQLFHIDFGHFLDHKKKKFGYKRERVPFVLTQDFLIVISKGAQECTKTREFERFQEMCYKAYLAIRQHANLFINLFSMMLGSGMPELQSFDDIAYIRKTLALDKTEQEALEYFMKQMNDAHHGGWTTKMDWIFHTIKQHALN
Sequence of PI3K (P27986 whole entry partner): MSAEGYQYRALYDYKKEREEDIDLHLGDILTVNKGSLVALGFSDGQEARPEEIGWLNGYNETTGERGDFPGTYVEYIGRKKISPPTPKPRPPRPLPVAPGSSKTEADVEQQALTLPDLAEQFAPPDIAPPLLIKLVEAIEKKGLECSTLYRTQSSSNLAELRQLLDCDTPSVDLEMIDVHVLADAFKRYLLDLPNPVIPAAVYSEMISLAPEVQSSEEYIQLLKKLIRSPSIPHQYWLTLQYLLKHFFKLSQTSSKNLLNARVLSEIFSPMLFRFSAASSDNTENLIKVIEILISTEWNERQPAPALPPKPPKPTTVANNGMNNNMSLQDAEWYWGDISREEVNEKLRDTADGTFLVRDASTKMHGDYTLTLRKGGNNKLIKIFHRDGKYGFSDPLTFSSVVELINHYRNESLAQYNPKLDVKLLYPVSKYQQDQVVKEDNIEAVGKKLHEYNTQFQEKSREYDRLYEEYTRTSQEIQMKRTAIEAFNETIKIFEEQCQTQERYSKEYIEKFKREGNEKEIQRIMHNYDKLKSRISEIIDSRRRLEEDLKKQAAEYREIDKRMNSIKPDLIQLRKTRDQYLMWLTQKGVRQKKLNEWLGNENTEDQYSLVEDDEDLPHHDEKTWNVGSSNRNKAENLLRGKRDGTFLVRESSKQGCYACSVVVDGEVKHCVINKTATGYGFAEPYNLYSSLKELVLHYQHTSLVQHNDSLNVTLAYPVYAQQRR

| IC50 (PI3K) | IC50 (prostate line LNCap) | Structure (SMILES) | IC50 (breast line MDA468) |
| --- | --- | --- | --- |
| 2230 nM | 1300 nM | COC(=O)Nc1ccc(-c2nc(N3CCOCC3)c3cnn(C4CCN(C(=O)C(C)C)CC4)c3n2)cc1 [Compound 810, methyl {4-[1-(1-isobutyrylpiperidin-4-yl)-4-morpholin-4-yl-1H-pyrazolo[3,4-d]pyrimidin-6-yl]phenyl}carbamate] | 3000 nM |
| 1350 nM | 1900 nM | COC(=O)Nc1ccc(-c2nc(N3CCOCC3)c3cnn(C4CCN(C(=O)C(F)(F)F)CC4)c3n2)cc1 [Compound 811, methyl (4-{4-morpholin-4-yl-1-[1-(trifluoroacetyl)piperidin-4-yl]-1H-pyrazolo[3,4-d]pyrimidin-6-yl}phenyl)carbamate] | 4600 nM |
| 688 nM | 2400 nM | CCNC(=S)N1CCC(n2ncc3c(N4CCOCC4)nc(-c4ccc(NC(=O)OC)cc4)nc32)CC1 [Compound 812, methyl [4-(1-{1-[(ethylamino)carbonothioyl]piperidin-4-yl}-4-morpholin-4-yl-1H-pyrazolo[3,4-d]pyrimidin-6-yl)phenyl]carbamate] | 3000 nM |
| 1960 nM | 2250 nM | CNC(=O)N1CCC(n2ncc3c(N4CCOCC4)nc(-c4ccc(NC(=O)OC)cc4)nc32)CC1 [Compound 813, methyl (4-{1-[1-(methylcarbamoyl)piperidin-4-yl]-4-morpholin-4-yl-1H-pyrazolo[3,4-d]pyrimidin-6-yl}phenyl)carbamate] | 4400 nM |
| 34 nM | < 27 nM | CCOC(=O)N1CCC(n2ncc3c(N4CCOCC4)nc(-c4ccc(NC(=O)Nc5ccccc5)cc4)nc32)CC1 [Compound 814, ethyl 4-(6-{4-[(anilinocarbonyl)amino]phenyl}-4-morpholin-4-yl-1H-pyrazolo[3,4-d]pyrimidin-1-yl)piperidine-1-carboxylate] | < 27 nM |
| 3810 nM | 1500 nM | CCOC(=O)N1CCC(n2ncc3c(N4CCOCC4)nc(-c4ccc(NC(=O)Nc5ccccn5)cc4)nc32)CC1 [Compound 815, ethyl 4-(4-morpholin-4-yl-6-{4-[(pyridin-2-ylcarbamoyl)amino]phenyl}-1H-pyrazolo[3,4-d]pyrimidin-1-yl)piperidine-1-carboxylate] | 5000 nM |
| 60 nM | < 27 nM | CCOC(=O)N1CCC(n2ncc3c(N4CCOCC4)nc(-c4ccc(NC(=O)Nc5cccnc5)cc4)nc32)CC1 [Compound 816, ethyl 4-(4-morpholin-4-yl-6-{4-[(pyridin-3-ylcarbamoyl)amino]phenyl}-1H-pyrazolo[3,4-d]pyrimidin-1-yl)piperidine-1-carboxylate] | < 27 nM |
| 40 nM | < 27 nM | CCOC(=O)N1CCC(n2ncc3c(N4CCOCC4)nc(-c4ccc(NC(=O)Nc5ccncc5)cc4)nc32)CC1 [Compound 817, ethyl 4-(4-morpholin-4-yl-6-{4-[(pyridin-4-ylcarbamoyl)amino]phenyl}-1H-pyrazolo[3,4-d]pyrimidin-1-yl)piperidine-1-carboxylate] | < 27 nM |
| 445 nM | 320 nM | CCOC(=O)N1CCC(n2ncc3c(N4CCOCC4)nc(-c4ccc(NC(=O)NCCO)cc4)nc32)CC1 [Compound 818, ethyl 4-[6-(4-{[(2-hydroxyethyl)carbamoyl]amino}phenyl)-4-morpholin-4-yl-1H-pyrazolo[3,4-d]pyrimidin-1-yl]piperidine-1-carboxylate] | 250 nM |
| 794 nM | < 27 nM | CCOC(=O)N1CCC(n2ncc3c(N4CCOCC4)nc(-c4ccc(NC(=O)NCCF)cc4)nc32)CC1 [Compound 819, ethyl 4-[6-(4-{[(2-fluoroethyl)carbamoyl]amino}phenyl)-4-morpholin-4-yl-1H-pyrazolo[3,4-d]pyrimidin-1-yl]piperidine-1-carboxylate] | 70 nM |
| 704 nM | < 27 nM | CCNC(=O)Nc1ccc(-c2nc(N3CCOCC3)c3cnn(C4CCN(C(=O)OCC)CC4)c3n2)cc1 [Compound 820, ethyl 4-(6-{4-[(ethylcarbamoyl)amino]phenyl}-4-morpholin-4-yl-1H-pyrazolo[3,4-d]pyrimidin-1-yl)piperidine-1-carboxylate] | 130 nM |
| 1120 nM | < 27 nM | CCOC(=O)N1CCC(n2ncc3c(N4CCOCC4)nc(-c4ccc(NC(=O)NC5CC5)cc4)nc32)CC1 [Compound 821, ethyl 4-(6-{4-[(cyclopropylcarbamoyl)amino]phenyl}-4-morpholin-4-yl-1H-pyrazolo[3,4-d]pyrimidin-1-yl)piperidine-1-carboxylate] | 140 nM |
| 1230 nM | 120 nM | CCNC(=O)Nc1ccc(-c2nc(N3CCOCC3)c3cnn(C4CCN(C(=O)C(C)C)CC4)c3n2)cc1 [Compound 822, 1-ethyl-3-{4-[1-(1-isobutyrylpiperidin-4-yl)-4-morpholin-4-yl-1H-pyrazolo[3,4-d]pyrimidin-6-yl]phenyl}urea] | 500 nM |
| 571 nM | 3500 nM | CC(C)C(=O)N1CCC(n2ncc3c(N4CCOCC4)nc(-c4ccc(NC(=O)NCCO)cc4)nc32)CC1 [Compound 823, 1-(2-hydroxyethyl)-3-{4-[1-(1-isobutyrylpiperidin-4-yl)-4-morpholin-4-yl-1H-pyrazolo[3,4-d]pyrimidin-6-yl]phenyl}urea] | 320 nM |
| 2030 nM | 110 nM | CC(C)C(=O)N1CCC(n2ncc3c(N4CCOCC4)nc(-c4ccc(NC(=O)NC5CC5)cc4)nc32)CC1 [Compound 824, 1-cyclopropyl-3-{4-[1-(1-isobutyrylpiperidin-4-yl)-4-morpholin-4-yl-1H-pyrazolo[3,4-d]pyrimidin-6-yl]phenyl}urea] | 700 nM |
| 1670 nM | 150 nM | CC(C)C(=O)N1CCC(n2ncc3c(N4CCOCC4)nc(-c4ccc(NC(=O)NCCF)cc4)nc32)CC1 [Compound 825, 1-(2-fluoroethyl)-3-{4-[1-(1-isobutyrylpiperidin-4-yl)-4-morpholin-4-yl-1H-pyrazolo[3,4-d]pyrimidin-6-yl]phenyl}urea] | 620 nM |
| 29 nM | 30 nM | CC(C)C(=O)N1CCC(n2ncc3c(N4CCOCC4)nc(-c4ccc(NC(=O)Nc5ccccc5)cc4)nc32)CC1 [Compound 826, 1-{4-[1-(1-isobutyrylpiperidin-4-yl)-4-morpholin-4-yl-1H-pyrazolo[3,4-d]pyrimidin-6-yl]phenyl}-3-phenylurea] | 110 nM |
| 2260 nM | 600 nM | CC(C)C(=O)N1CCC(n2ncc3c(N4CCOCC4)nc(-c4ccc(NC(=O)Nc5ccccn5)cc4)nc32)CC1 [Compound 827, 1-{4-[1-(1-isobutyrylpiperidin-4-yl)-4-morpholin-4-yl-1H-pyrazolo[3,4-d]pyrimidin-6-yl]phenyl}-3-pyridin-2-ylurea] | 16000 nM |
| 50 nM | 120 nM | CC(C)C(=O)N1CCC(n2ncc3c(N4CCOCC4)nc(-c4ccc(NC(=O)Nc5cccnc5)cc4)nc32)CC1 [Compound 828, 1-{4-[1-(1-isobutyrylpiperidin-4-yl)-4-morpholin-4-yl-1H-pyrazolo[3,4-d]pyrimidin-6-yl]phenyl}-3-pyridin-3-ylurea] | 330 nM |
